According to patent US6486167B1, “Heterocyclic cytotoxic agents” (Rutgers, The State University of New Jersey, priority 1997, dated 2002):
Read-outs that look alike come from different tables or passages of the source.

What was measured:
human topoisomerase I = target: T1, human topoisomerase I (Homo sapiens, UniProt P11387); assay: Topoisomerase I-mediated DNA cleavage assay (Test A); format: biochemical; settings: for Topo I-mediated DNA cleavage (REC, Relative Effective Concentration): concentration relative to camptothecin (CPT = 1) producing the same cleavage on plasmid DNA, human topoisomerase I; for topoisomerase I poisoning activity (in words): qualitative statement
T1 construct: made in house
T1 sequence (P11387 1-765): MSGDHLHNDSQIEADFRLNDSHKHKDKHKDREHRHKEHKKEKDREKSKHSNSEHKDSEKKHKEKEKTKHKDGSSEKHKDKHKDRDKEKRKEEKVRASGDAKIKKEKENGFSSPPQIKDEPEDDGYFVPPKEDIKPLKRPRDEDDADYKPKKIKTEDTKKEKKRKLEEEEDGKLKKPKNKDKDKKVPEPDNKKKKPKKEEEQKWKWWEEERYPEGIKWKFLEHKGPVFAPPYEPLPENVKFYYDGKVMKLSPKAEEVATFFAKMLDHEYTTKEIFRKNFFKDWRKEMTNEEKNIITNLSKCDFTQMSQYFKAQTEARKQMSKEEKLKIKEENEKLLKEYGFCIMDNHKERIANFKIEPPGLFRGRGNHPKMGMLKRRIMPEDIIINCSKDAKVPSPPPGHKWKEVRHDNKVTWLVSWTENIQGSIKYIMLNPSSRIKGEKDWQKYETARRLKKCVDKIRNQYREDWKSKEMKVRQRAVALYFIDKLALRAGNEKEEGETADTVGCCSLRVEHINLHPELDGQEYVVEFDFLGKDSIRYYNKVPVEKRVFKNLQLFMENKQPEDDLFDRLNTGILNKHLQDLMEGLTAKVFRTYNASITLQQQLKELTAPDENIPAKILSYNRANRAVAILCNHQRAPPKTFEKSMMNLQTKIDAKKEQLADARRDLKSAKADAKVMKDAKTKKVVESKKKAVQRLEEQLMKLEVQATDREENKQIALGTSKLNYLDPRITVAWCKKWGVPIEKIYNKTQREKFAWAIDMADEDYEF
Experimental: (§1) Topoisomerase I and Topoisomerase II Cleavage Assay
(§2) Representative compounds of the invention were evaluated in cleavage assays for the recombinant topoisomerases I and calf thymus topoisomerases I and II. These assays were preformed as described by B. Gatto et al. Cancer Res., 1996, 56, 2795-2800. Human topoisomerase I was isolated as a recombinant fusion protein using a T7 expression system. DNA topoisomerase II was purified from calf thymus gland as reported by Halligan, B. D.; Edwards, K. A.; Liu, L. F. “Purification and characterization of a type II DNA topoisomerase from bovine calf thymus,” J. Biol. Chem. 1985, 260, 2475. Plasmid YEpG was purified by the alkali lysis method followed by phenol deproteination and CsCl/ethidium isopycnic centrifugation as described by Maniatis, T.; Fritsch, E. F.; Sambrook, J. Molecular Cloning, a Laboratory Manual; Cold Spring Harbor Laboratory: Cold Spring Harbor, N.Y. 1982; pp 149-185. The end-labeling of the plasmid was accomplished by digestion with a restriction enzyme followed by end-filling with Klenow polymerase as previously described by Liu, L. F.; Rowe, T. C.; Yang, L.; Tewey, K. M.; Chen, G. L. “Cleavage of DNA by mammalian topoisomerase II,” J. Biol. Chem. 1983, 258, 15365.

[1] = test system: calf thymus topoisomerase II; assay: Topoisomerase II-mediated DNA cleavage assay (Test A); format: biochemical; settings: concentration relative to VM-26 (= 1) producing the same cleavage on plasmid DNA
Experimental: as §1, §2

[2] = test system: human lymphoblast RPMI 8402; assay: MTT-microtiter plate tetrazolinium cytotoxicity assay (Test B), RPMI 8402; format: cell-based; settings: read-out: Cytotoxicity IC50 RPMI
Experimental: (§3) The cytotoxicity was determined using the MTT-microtiter plate tetrazolinium cytotoxicity assay (MTA) (See Chen A. Y. et al. Cancer Res. 1993, 53, 1332; Mosmann, T. J., J. Immunol. Methods 1983, 65, 55; and Carmichael, J. et al. Cancer Res. 1987, 47, 936).

[3] = test system: camptothecin-resistant variant cell line, CPT-K5; assay: MTT-microtiter plate tetrazolinium cytotoxicity assay (Test B), CPT-K5; format: cell-based, human; settings: read-out: Cytotoxicity IC50 CPT-K5
Experimental: as §3

[4] = Homo sapiens, 96 h, CPT-K5 camptothecin-resistant cells, 4 days of continuous drug exposure

| Molecule | Topo I-mediated DNA cleavage (REC, Relative Effective Concentration) (human topoisomerase I) | melting point | Topo II-mediated DNA cleavage (REC, Relative Effective Concentration) [1] | IC50 ([2]; Homo sapiens, RPMI 8402, 96 h) | IC50 [3, 4] | IC50 ([2]; Homo sapiens, 96 h, RPMI 8402 cells, 4 days of continuous drug exposure) | IC50 ([3]; Homo sapiens, CPT-K5, 96 h) | topoisomerase I poisoning activity (in words) (human topoisomerase I) | IC50 ([2]; RPMI 8402 cells, 4 days of continuous drug exposure) | IC50 ([3]; CPT-K5 camptothecin-resistant cells, 4 days of continuous drug exposure) |
| --- | --- | --- | --- | --- | --- | --- | --- | --- | --- | --- |
| CC[C@@]1(O)C(=O)OCc2c1cc1n(c2=O)Cc2cc3ccccc3nc2-1 [CPT, camptothecin, reference compound] | 1 |  | >1000 |  | > 10 µM | 0.004 µM |  |  |  |  |
| COc1cc2ccc3c4cc(OC)c(OC)cc4ncc3c2cc1OC [Compound 4, 2,3,8,9-Tetramethoxybenzo[i]phenanthridine] | >1000 | 267 to 268 °C | >1000 | 22.9 µM |  |  | 22.9 µM | significantly less topoisomerase I poisioning activity |  |  |
| COc1cc2nc(C)c3c4cc5c(cc4ccc3c2cc1OC)OCO5 [Compound 7, 8,9-Dimethoxy-5-methyl-2,3-methylenedioxybenzo[i]-phenanthridine] | 200 | > 250 °C | 100 | 10.1 µM |  |  | 14.4 µM | potent activity |  |  |
| COc1cc([C@@H]2c3cc4c(cc3[C@@H](O[C@@H]3O[C@@H]5CO[C@@H](c6cccs6)O[C@H]5[C@H](O)[C@H]3O)[C@H]3COC(=O)[C@H]23)OCO4)cc(OC)c1O [VM-26, teniposide, reference compound] | >1000 |  | 1 |  |  |  |  |  | 0.3 µM | 0.5 µM |
| COc1cc2ccc3c4cc(OC)c(OC)cc4nc(C)c3c2cc1OC [Compound 5, 5-Methyl-2,3,8,9-tetramethoxybenzo[i]phenanthridine] | >1000 | 255 to 257 °C | >1000 | 27.5 µM |  |  | > 27.5 µM | significantly less topoisomerase I poisioning activity |  |  |
| COc1cc2ncc3c4cc5c(cc4ccc3c2cc1OC)OCO5 [Compound 6, 2,3-Methylenedioxy-8,9-dimethoxybenzo[i]phenanthridine] | 100 | > 250 °C | 10 | 7.5 µM |  |  | 7 µM | potent activity |  |  |

Second part, led by results:

| Topo I-mediated DNA cleavage (REC, Relative Effective Concentration) (human topoisomerase I) | melting point | Molecule | Topo II-mediated DNA cleavage (REC, Relative Effective Concentration) [1] | IC50 ([2]; Homo sapiens, RPMI 8402, 96 h) | IC50 [3, 4] | IC50 ([2]; Homo sapiens, 96 h, RPMI 8402 cells, 4 days of continuous drug exposure) | IC50 ([3]; Homo sapiens, CPT-K5, 96 h) | topoisomerase I poisoning activity (in words) (human topoisomerase I) | IC50 ([2]; RPMI 8402 cells, 4 days of continuous drug exposure) | IC50 ([3]; CPT-K5 camptothecin-resistant cells, 4 days of continuous drug exposure) |
| --- | --- | --- | --- | --- | --- | --- | --- | --- | --- | --- |
| 1 |  | COc1cc2c[n+](C)c3c4cc5c(cc4ccc3c2cc1OC)OCO5 [Nitidine, reference compound] | 1 | 0.65 µM | > 2.6 µM |  |  |  |  |  |
| 50 |  | COc1cc2ccc3c4cc(N)ccc4ncc3c2cc1OC [Compound 31, 2,3-Dimethoxy-9-aminobenzo[i]phenanthridine] | >1000 | 3 µM |  |  | 3 µM |  |  |  |
|  | 200 to 202 °C | COc1ccc2c(c1)ncc1c3cc(OC)c(OC)cc3ccc21 [Example 9, 2,3,8-Trimethoxybenzo[i]phenanthridine] |  |  |  |  |  |  |  |  |
| 25 | 171 °C | COc1cc2ccc3c4cc5c(cc4ncc3c2cc1OC)OCO5 [Compound 28, 2,3-Dimethoxy-8,9-methylenedioxybenzo[i]phenanthridine] | >1000 | 0.2 µM |  |  | 0.2 µM | potent topoisomerase poisioning activity |  |  |
| 250 |  | COc1cc2ccc3c4cc(OCc5ccccc5)ccc4ncc3c2cc1OC [Compound 30, 2,3-Dimethoxy-9-benzyloxybenzo[i]phenanthridine] | >1000 | 7.5 µM |  |  | 7.5 µM |  |  |  |
| 100 |  | 2,3,8,9-Dimethylenedioxybenzo[i]phenanthridine [Compound 29] | >1000 |  |  |  |  |  |  |  |
